# Test results from US20070270462A1, “8-hydroxyquinoline compounds for treating a polyglutamine (polyQ)-expansion disease” (priority 2005, published 2007).
# Columns and labels:
# egfp-alone = test: Fluorescence microscopy of transfected PC12 cells expressing egfp alone; assay type: cell-based; settings: CQ 4 μM, 48 hours post-transfection
# Text: PolyQ-htt-GFP fusion constructs, in which the polyglutamine region is encoded by CAA and CAG-containing tandem repeats ([…]) [SEQ ID NO: 1], human polyglutaminen, were obtained from the Hereditary Disease Foundation, Santa Monica, Calif., USA. PC12 and HEK293 cells were maintained in MEM supplemented with 10% v/v FBS, switched to Opti-MEM without serum for 6 hrs during transfection using Lipofectamine 2000 (Invitrogen, Carlsbad, Calif., USA), and returned to serum-containing medium thereafter (up to 48 hours). […] Control cultures received equivalent amounts of DMSO-containing vehicle (<0.1% w/v DMSO, final concentration).
# Concordant with this reduction in mutant protein expression, cell survival was improved by CQ in a dose dependent fashion with a half maximal effect at 1-2 μM (FIG. 2b). Cell death began to increase at 8 μM, likely due to dose-dependent toxic effects of CQ.
# R6/2 mice [1] = test: Lateral ventricle area (striatal atrophy) in R6/2 mice; assay type: in vivo, mouse; settings: 11-week old, oral CQ 30 mg/kg/day, versus sham treatment group
# Description: (§1) A colony of transgenic mice strain R6/2 that is heterozygous for htt exon1 (containing 145 CAG repeats) was maintained, with founders originating and available from The Jackson Laboratory (Bar Harbor, Me., USA). Male transgenic R6/2 mice were bred with background strain (B6CBAFI/J) females. Genotyping was done according to Hockly et al, Brain Res Bull 61, 469-479, 2003. CQ in water was orally administered to mice at 30 mg/kg/day starting at 3 weeks of age and continued until the mice were deceased or sacrificed for tissues. Littermate R6/2 mice were gavaged with water vehicle alone. At the end of CQ treatment mice were anesthetized and transcardially perfused with PBS followed by 4% v/v paraformaldehyde. Blood glucose levels were determined after at least 8 hrs of fasting in 11-week old mice (n=6 for wild-type, n=4 for vehicle-treated R6/2, n=6 for CQ-treated R6/2 littermates) using a 2300 STAT Plus glucose analyzer (YSI, Yellowsonte, Ohio, USA). Fasting blood insulin levels in animals fasted for 8 hrs were measured using an Ultra Sensitive Rat Insulin ELISA Kit (Crystal Chem, Inc., Downers Grove, Ill., USA) according to manufacturer's instructions.
# Plasma membrane integrity was evaluated using propidium iodide at 20 μg/ml final concentration. Approximately 200 cells transfected with the Htt^exon1-Q103-egf plasmid were counted for each treatment group 48 hr after transfection. […]
# R6/2 mice [2] = test: Fasting blood glucose in R6/2 mice; assay type: in vivo, mouse; settings: 11-week old R6/2 mice after 8 weeks of CQ treatment, mean ± s.e.m.
# Description: as §1
# Consistent with the blood glucose level was a reciprocal change in blood insulin levels.
# Data are mean+s.e.m. n≧4 for each treatment group. *P<0.0004 for glucose, **P=0.0065 for insulin levels comparing vehicle and CQ-treated groups.
# Htt exon1-Q103-egfp mRNA = test: Northern analysis of Htt exon1-Q103-egfp mRNA; assay type: cell-based; settings: Northern analysis after 48 hrs of transfection
# Description: Trizol reagent (Invitrogen, Carlsbad, Calif.) was used to isolate total RNA. Ten μg of total RNA was electrophoresed through 1.25% w/v agarose gel and transferred onto Hybond N+membrane. The membrane was baked in an 80° C. oven for 15 min and UV-crosslinked. Exon 1 of htt containing 103 CAA/CAG-repeats was used as a probe for northern blot detection according to AlkPhos Direct Labeling and Detection System (Amersham Biosciences, Piscataway, N.J.). One hundred ng of the probe was hybridized to the membrane in a 60° C. rotating hybridization oven overnight. The membrane was scanned using the Typhoon 9410 digital scanner (Amersham Biosciences, Piscataway, N.J.) to yield the signal image. The experiment was performed three times and band intensities were averaged.
# In examining potential mechanisms for the effects of CQ on Htt accumulation, we considered the possibilities that CQ might act to inhibit Htt aggregation or directly influence Htt synthesis or degradation. […] Therefore, we focused on the aspects of Htt synthesis and turnover. To determine whether CQ might down-regulate polyQ-Htt expression at the transcriptional level, we examined the amount of Htt^exon1-Q103-egfp mRNA present after 48 hrs of transfection by Northern analysis. […]
# Alzheimer's disease = settings: phase II clinical trial; cited from earlier work
# R6/2 mice [3] = test: Foot clasping test in R6/2 mice; assay type: in vivo, mouse; settings: R6/2 mice at 10 weeks
# Description: as §1, with “At the end of CQ treatment mice were anesthetized and transcardially perfused with PBS followed by 4% v/v paraformaldehyde.” left out
# Rotarod performance (n≧6 for each treatment group) was assessed as described by Hockly et al., 2003 Supra with the modification that the SDI Rota-Rod (San Diego Instruments, San Diego, Calif.) was set to linearly increase in speed to 40 rpm in 4 min ramp time. […]
smiles,measurement,setting,value
"Oc1c(I)cc(Cl)c2cccnc12 [CQ, 5-chloro-7-iodo-8-hydroxy-quinoline]",fluorescent product of egfp-alone,egfp-alone,unaffected
same,reduction of lateral ventricle area,R6/2 mice [1],55%
same,fasting blood glucose level,R6/2 mice [2],4.1 ± 0.3 mM
same,effect on Htt exon1-Q103-egfp mRNA levels,Htt exon1-Q103-egfp mRNA,no significant effect
same,CQ toxicity,Alzheimer's disease,no significant CQ toxicity
same,effects on Alzheimer's disease,Alzheimer's disease,early positive effects
same,average clasping score,"R6/2 mice [3]; score of 3 maximum, oral CQ 30 mg/kg/day",1.3
same,reduction of average clasping score,R6/2 mice [3]; versus vehicle (2.5),48%
